Measured values published in publication PMC7023430, “4-Aminobenzoic Acid Derivatives: Converting Folate Precursor to Antimicrobial and Cytotoxic Agents” (Biomolecules, 2019).
Values after ≈ are worked out from the molar mass of the structure shown. Read-outs that look alike come from different tables or passages of the source.

Legend:
[1] = system: Trichosporon asahii 1188; assay: Antifungal microdilution broth method, T. asahii; type: cell-based
Method in brief: (§1)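 Broth microdilution, EUCAST, modified. Medium: RPMI-1640 + L-glutamine + 2% glucose, MOPS pH 7.0; compounds from DMSO, twofold series. Visual MIC, duplicates, ≤1-step discrepancy accepted.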

[2] = system: Escherichia coli ATCC 25922, CCM 3954; assay: Antibacterial microdilution broth method, E. coli; type: cell-based; settings: Escherichia coli
[3] = system: ESBL-positive Klebsiella pneumoniae J 14368/08
[4] = system: Aspergillus fumigatus 231; assay: Antifungal microdilution broth method, A. fumigatus; type: cell-based
Method in brief: as §1

[5] = system: Lichtheimia corymbifera 272; assay: Antifungal microdilution broth method, L. corymbifera; type: cell-based
Method in brief: as §1

[6] = system: Mycobacterium kansasii 235/80; assay: Antimycobacterial micromethod in Šula's medium, M. kansasii 235/80; type: cell-based
[7] = system: Candida tropicalis 156; assay: Antifungal microdilution broth method, C. tropicalis; type: cell-based
Method in brief: as §1

[8] = system: Staphylococcus aureus ATCC 29213, CCM 4223; assay: Antibacterial microdilution broth method, S. aureus; type: cell-based
[9] = system: M. kansasii 6509/96 (clinical isolate); assay: Antimycobacterial micromethod in Šula's medium, M. kansasii 6509/96; type: cell-based; settings: Mycobacterium kansasii
[10] = system: Pseudomonas aeruginosa ATCC 27853, CCM 3955; assay: Antibacterial microdilution broth method, P. aeruginosa; type: cell-based; settings: Pseudomonas aeruginosa, P. aeruginosa
[11] = system: methicillin-resistant Staphylococcus aureus ATCC 43300, CCM 4750 (MRSA); assay: Antibacterial microdilution broth method, MRSA; type: cell-based; settings: Staphylococcus aureus
[12] = system: Candida krusei E28; assay: Antifungal microdilution broth method, C. krusei; type: cell-based; settings: Pichia kudriavzevii
Method in brief: as §1

[13] = system: Enterococcus faecalis ATCC 29212, CCM 4224; assay: Antibacterial microdilution broth method, E. faecalis; type: cell-based; settings: Enterococcus faecalis
[14] = system: Mycobacterium avium 330/88; assay: Antimycobacterial micromethod in Šula's medium, M. avium; type: cell-based
[15] = system: Candida glabrata 20/I; assay: Antifungal microdilution broth method, C. glabrata; type: cell-based; settings: Nakaseomyces glabratus
Method in brief: as §1

[16] = system: HepG2 cells; assay: Cytotoxicity, CellTiter 96 assay; type: cell-based, human; settings: Homo sapiens, HepG2, 24 h, 24 h incubation
Experimental: HepG2, human hepatocellular carcinoma cells (ATCC HB-8065; passage 5–8) purchased from Health Protection Agency Culture Collections (ECACC, Salisbury, UK) were cultured in Minimum Essentials Eagle Medium supplemented with 10% fetal bovine serum, 1% L-glutamine solution and non-essential amino acid solution (Sigma-Aldrich, St. Louis, MO, USA) in a humidified atmosphere containing 5% CO2 at 37 °C. For subculturing, the cells were harvested after trypsin/EDTA (Sigma-Aldrich, St. Louis, USA) treatment at 37 °C. To evaluate cytotoxicity, the cells treated with the tested substances were used as experimental groups whereas untreated HepG2 cells served as control groups.
The cells were seeded in a density of 10 000 cells per well in a 96-well plate. The following day the cells were treated with each of the tested substances dissolved in DMSO (maximal incubation concentration of DMSO was 1% v/v). The tested substances were prepared at different incubation concentrations in triplicates according to their solubility. Simultaneously, the controls representing 100% cell viability, 0% cell viability (the cells treated with 10% DMSO), no cell control and vehiculum controls were also involved in triplicates. After 24 h incubation in a humidified atmosphere containing 5% CO2 at 37 °C, the reagent from the kit CellTiter 96 AQueous One Solution Cell Proliferation Assay (CellTiter 96; Promega, Fitchburg, WI, USA) was added. After 2 h incubation at 37 °C absorbance of samples was recorded at 490 nm (TECAN, Infinita M200, Grödig, Austria). A standard toxicological parameter IC50 was calculated by nonlinear regression from a semilogarithmic plot of incubation concentration versus percentage of absorbance relative to untreated controls using GraphPad Prism software (version 6; GraphPad Software, Inc., La Jolla, CA, USA).
The CellTiter 96 assay used is based on the reduction of tetrazolium dye in living cells to formazan, which is then determined colorimetrically. This reduction is related to availability of NADH or NADPH. The decline in levels of these metabolically important compounds in the cell causes that the production of formazan is reduced. For quantitative comparison of cytotoxicity, the parameter IC50 was used.

[17] = 24 h incubation, read-out: MIC EC 24 h
[18] = 48 h incubation, read-out: MIC EC 48 h
[19] = 235/80, 168 h, 7 days incubation at 37 °C, read-out: MIC M. kansasii 235/80 7 d
[20] = 235/80, 336 h, 14 days incubation at 37 °C, read-out: MIC M. kansasii 235/80 14 d
[21] = 235/80, 504 h, 21 days incubation at 37 °C, read-out: MIC M. kansasii 235/80 21 d
[22] = 24 h incubation, read-out: MIC SA 24 h
[23] = 48 h incubation, read-out: MIC SA 48 h
[24] = 168 h, 7 days incubation at 37 °C, read-out: MIC M. kansasii 6509/96 7 d
[25] = 336 h, 14 days incubation at 37 °C, read-out: MIC M. kansasii 6509/96 14 d
[26] = 504 h, 21 days incubation at 37 °C, read-out: MIC M. kansasii 6509/96 21 d
[27] = 24 h incubation, read-out: MIC PA 24 h
[28] = 48 h incubation, read-out: MIC PA 48 h
[29] = 24 h incubation, read-out: MIC MRSA 24 h
[30] = 48 h incubation, read-out: MIC MRSA 48 h
[31] = 24 h incubation, read-out: MIC EF 24 h
[32] = 48 h incubation, read-out: MIC EF 48 h
[33] = 330/88, 336 h, 14 days incubation at 37 °C, read-out: MIC M. avium 330/88 14 d
[34] = 330/88, 504 h, 21 days incubation at 37 °C, read-out: MIC M. avium 330/88 21 d

O=C(O)c1ccc(N=Cc2cc(F)ccc2O)cc1 [1b, 4-[(5-Fluoro-2-hydroxybenzylidene)amino]benzoic acid]
MIC ([1]; 24 h, read-out: MIC TA 24 h): > 500 µM | MIC ([1]; 48 h, read-out: MIC TA 48 h): > 500 µM | MIC [2, 17]: > 500 µM | MIC [2, 18]: > 500 µM | MIC KP-E 24 h [3]: >500 µM | MIC KP-E 48 h [3]: >500 µM | MIC ([4]; 24 h, read-out: MIC AF 24 h): > 500 µM | MIC ([4]; 48 h, read-out: MIC AF 48 h): > 500 µM | MIC ([5]; 24 h, read-out: MIC LC 24 h): > 500 µM | MIC ([5]; 48 h, read-out: MIC LC 48 h): > 500 µM | MIC [6, 19]: 250 µM (≈ 64.8 µg/mL) | MIC [6, 20]: 500 µM (≈ 130 µg/mL) | MIC [6, 21]: 500 µM (≈ 130 µg/mL) | MIC ([7]; 24 h, read-out: MIC CT 24 h): > 500 µM | MIC ([7]; 48 h, read-out: MIC CT 48 h): > 500 µM | MIC [8, 22]: > 500 µM | MIC [8, 23]: > 500 µM | MIC [9, 24]: 500 µM (≈ 130 µg/mL) | MIC [9, 25]: 500 µM (≈ 130 µg/mL) | MIC [9, 26]: 500 µM (≈ 130 µg/mL) | MIC [10, 27]: > 500 µM | MIC [10, 28]: > 500 µM | MIC [11, 29]: > 500 µM | MIC [11, 30]: > 500 µM | MIC ([12]; 24 h, read-out: MIC CK 24 h): > 500 µM | MIC ([12]; 48 h, read-out: MIC CK 48 h): > 500 µM | MIC [13, 31]: > 500 µM | MIC [13, 32]: > 500 µM | MIC [14, 33]: > 1000 µM | MIC [14, 34]: > 1000 µM | MIC ([15]; 24 h, read-out: MIC CG 24 h): > 500 µM | MIC ([15]; 48 h, read-out: MIC CG 48 h): > 500 µM | IC50 [16]: 498 µM

O=C(O)c1ccc(N=Cc2ccc(Cl)cc2O)cc1 [1l, 4-[(4-Chloro-2-hydroxybenzylidene)amino]benzoic acid]
MIC ([1]; 24 h, read-out: MIC TA 24 h): 500 µM (≈ 138 µg/mL) | MIC ([1]; 48 h, read-out: MIC TA 48 h): > 500 µM | MIC [2, 17]: > 500 µM | MIC [2, 18]: > 500 µM | MIC KP-E 24 h [3]: >500 µM | MIC KP-E 48 h [3]: >500 µM | MIC ([4]; 24 h, read-out: MIC AF 24 h): 250 µM (≈ 68.9 µg/mL) | MIC ([4]; 48 h, read-out: MIC AF 48 h): > 500 µM | MIC ([5]; 24 h, read-out: MIC LC 24 h): > 500 µM | MIC ([5]; 48 h, read-out: MIC LC 48 h): > 500 µM | MIC [6, 19]: 250 µM (≈ 68.9 µg/mL) | MIC [6, 20]: 500 µM (≈ 138 µg/mL) | MIC [6, 21]: 500 µM (≈ 138 µg/mL) | MIC ([7]; 24 h, read-out: MIC CT 24 h): 500 µM (≈ 138 µg/mL) | MIC ([7]; 48 h, read-out: MIC CT 48 h): > 500 µM | MIC [8, 22]: > 500 µM | MIC [8, 23]: > 500 µM | MIC [9, 24]: 250 µM (≈ 68.9 µg/mL) | MIC [9, 25]: 250 µM (≈ 68.9 µg/mL) | MIC [9, 26]: 500 µM (≈ 138 µg/mL) | MIC [10, 27]: > 500 µM | MIC [10, 28]: > 500 µM | MIC [11, 29]: > 500 µM | MIC [11, 30]: > 500 µM | MIC ([12]; 24 h, read-out: MIC CK 24 h): 500 µM (≈ 138 µg/mL) | MIC ([12]; 48 h, read-out: MIC CK 48 h): > 500 µM | MIC [13, 31]: > 500 µM | MIC [13, 32]: > 500 µM | MIC [14, 33]: 1000 µM (≈ 276 µg/mL) | MIC [14, 34]: 1000 µM (≈ 276 µg/mL) | MIC ([15]; 24 h, read-out: MIC CG 24 h): 500 µM (≈ 138 µg/mL) | MIC ([15]; 48 h, read-out: MIC CG 48 h): > 500 µM | IC50 [16]: 264 µM
